Experiments:
Assay type in all cases: cell-based
OCT4 (FKBP-tagged) = molecular target: T1, OCT4 (FKBP-tagged) (Mus musculus, UniProt P20263+Q8C7D2); experiment: ChIP-seq after OCT4 degradation in OCT4-FKBP ESCs; details: dTag 24 hours versus DMSO
T1 construct: an ESC line bearing endogenous knock-in of DNA encoding the FKBP protein fused to OCT4; HA (C); endogenous in cells; host or cells: V6.5 mouse ES cells (Med1-mEGFP background), homozygous Oct4-FKBP knock-in
Method: mES were grown to 80% confluence in 2i media. 1% formaldehyde in PBS was used for crosslinking of cells for 15 minutes, followed by quenching with Glycine at a final concentration of 125 mM on ice. Cells were washed with cold PBS and harvested by scraping cells in cold PBS. Collected cells were pelleted at 1000 g for 3 minutes at 4° C., flash frozen in liquid nitrogen and stored at −80° C. All buffers contained freshly prepared cOmplete protease inhibitors (Roche, 11873580001). […] The pellet was resuspended in sonication buffer (20 mM Tris-HCl pH 8.0, 150 mM NaCl, 2 mM EDTA pH 8.0, 0.1% SDS, and 1% Triton X-100, 1 3 protease inhibitors) and then sonicated on a Misonix 3000 sonicator for 10 cycles at 30 s each on ice (18-21 W) with 60 s on ice between cycles. Sonicated lysates were cleared once by centrifugation at 16,000 rcf. for 10 minutes at 4° C. Input material was reserved and the remainder was incubated overnight at 4° C. with magnetic beads bound with antibody (Table S4) to enrich for DNA fragments bound by the indicated factor. […]
ChIP-Seq data were aligned to the mm9 version of the mouse reference genome using bowtie with parameters -k 1 -m 1 -best and -l set to read length. […]

[1] = system: mutant (Y537S) and mutant (D538G) ER activation domain; experiment: Lac array assay in U2OS cells, mutant ER fusions; details: Y537S and D538G mutants, presence versus absence of estrogen
Source text: A Lac binding domain-CFP-ER activation domain (ER) fusion protein, Lac binding domain-CFP-mutant (Y537S) ER activation domain fusion protein, or Lac binding domain-CFP-ER mutant (D538G) activation domain fusion protein was introduced into U2OS cells bearing the Lac operon array. […] Same experimental conditions as FIG. 39.
Constructs were assembled by NEB HIFI cloning in pSV2 mammalian expression vector containing an SV40 promoter driving expression of a CFP-LacI fusion protein. The activation domains and mutant activation domains of […] were fused by the c-terminus to this recombinant protein, joined by the linker sequence […] (SEQ ID NO: 17). U2OS-268 cells containing a stably integrated array of ˜51,000 Lac-repressor binding sites (a gift of the Spector laboratory) were transfected using lipofectamine 3000 (Thermofisher L3000015). 24 hours after transfection, cells were plated on fibronectin-coated glass coverslips. After 24 hours on glass coverslips, cells were fixed for immunofluorescence with a MED1 antibody (Table S4) as described above and imaged, by spinning disk confocal microscopy.

MYC oncogene = experiment: Confocal microscopy of MED1 condensates at MYC; details: presence versus absence of estrogen
[2] = system: ER LBD-MED1 condensate in U2OS-Lac cells; experiment: Live cell imaging of U2OS-Lac cells with endogenously tagged MED1-mEGFP; details: after 10 nM B-Estradiol 45 minutes; 10 uM 4-Hydroxytamoxifen, 30 minutes
Method: Cells were imaged pre-treatment and 30 minutes after treatment with a 1:1000 dilution of DMSO or 10 uM 4-Hydroxytamoxifen in Estrogen-free DMEM. Quantification was performed in FIJI; the instrument background was subtracted from the average signal intensity in the array, then divided by the instrument background subtracted from an average nuclear signal to yield the normalized signal intensity.

T1 sequence (P20263 with tags, fused parts or gaps): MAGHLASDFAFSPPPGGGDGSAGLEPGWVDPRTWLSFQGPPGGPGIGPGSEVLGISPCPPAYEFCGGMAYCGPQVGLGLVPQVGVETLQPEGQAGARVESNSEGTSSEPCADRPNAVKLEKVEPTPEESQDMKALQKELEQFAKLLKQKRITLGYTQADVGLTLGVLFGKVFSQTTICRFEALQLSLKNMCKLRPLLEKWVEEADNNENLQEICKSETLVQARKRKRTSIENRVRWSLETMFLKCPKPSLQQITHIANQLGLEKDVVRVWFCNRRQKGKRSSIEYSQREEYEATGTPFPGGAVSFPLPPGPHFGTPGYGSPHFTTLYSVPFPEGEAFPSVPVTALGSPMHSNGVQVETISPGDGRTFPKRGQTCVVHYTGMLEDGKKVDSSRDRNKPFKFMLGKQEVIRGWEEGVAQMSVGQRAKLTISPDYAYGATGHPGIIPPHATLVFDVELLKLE
T1 sequence (Q8C7D2 whole entry, the tested form may be a part): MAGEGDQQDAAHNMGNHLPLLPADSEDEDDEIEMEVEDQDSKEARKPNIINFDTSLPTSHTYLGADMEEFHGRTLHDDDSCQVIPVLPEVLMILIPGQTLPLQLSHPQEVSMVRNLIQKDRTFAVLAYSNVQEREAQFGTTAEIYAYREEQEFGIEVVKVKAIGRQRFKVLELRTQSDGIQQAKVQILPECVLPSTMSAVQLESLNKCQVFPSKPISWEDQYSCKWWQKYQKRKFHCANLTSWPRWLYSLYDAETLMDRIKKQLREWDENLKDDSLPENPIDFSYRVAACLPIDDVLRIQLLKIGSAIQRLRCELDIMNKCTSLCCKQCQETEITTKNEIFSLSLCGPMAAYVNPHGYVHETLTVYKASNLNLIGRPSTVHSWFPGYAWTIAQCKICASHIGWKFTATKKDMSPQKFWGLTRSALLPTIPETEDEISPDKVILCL
T1 sequence (Q3U1J4 whole entry partner, the tested form may be a part): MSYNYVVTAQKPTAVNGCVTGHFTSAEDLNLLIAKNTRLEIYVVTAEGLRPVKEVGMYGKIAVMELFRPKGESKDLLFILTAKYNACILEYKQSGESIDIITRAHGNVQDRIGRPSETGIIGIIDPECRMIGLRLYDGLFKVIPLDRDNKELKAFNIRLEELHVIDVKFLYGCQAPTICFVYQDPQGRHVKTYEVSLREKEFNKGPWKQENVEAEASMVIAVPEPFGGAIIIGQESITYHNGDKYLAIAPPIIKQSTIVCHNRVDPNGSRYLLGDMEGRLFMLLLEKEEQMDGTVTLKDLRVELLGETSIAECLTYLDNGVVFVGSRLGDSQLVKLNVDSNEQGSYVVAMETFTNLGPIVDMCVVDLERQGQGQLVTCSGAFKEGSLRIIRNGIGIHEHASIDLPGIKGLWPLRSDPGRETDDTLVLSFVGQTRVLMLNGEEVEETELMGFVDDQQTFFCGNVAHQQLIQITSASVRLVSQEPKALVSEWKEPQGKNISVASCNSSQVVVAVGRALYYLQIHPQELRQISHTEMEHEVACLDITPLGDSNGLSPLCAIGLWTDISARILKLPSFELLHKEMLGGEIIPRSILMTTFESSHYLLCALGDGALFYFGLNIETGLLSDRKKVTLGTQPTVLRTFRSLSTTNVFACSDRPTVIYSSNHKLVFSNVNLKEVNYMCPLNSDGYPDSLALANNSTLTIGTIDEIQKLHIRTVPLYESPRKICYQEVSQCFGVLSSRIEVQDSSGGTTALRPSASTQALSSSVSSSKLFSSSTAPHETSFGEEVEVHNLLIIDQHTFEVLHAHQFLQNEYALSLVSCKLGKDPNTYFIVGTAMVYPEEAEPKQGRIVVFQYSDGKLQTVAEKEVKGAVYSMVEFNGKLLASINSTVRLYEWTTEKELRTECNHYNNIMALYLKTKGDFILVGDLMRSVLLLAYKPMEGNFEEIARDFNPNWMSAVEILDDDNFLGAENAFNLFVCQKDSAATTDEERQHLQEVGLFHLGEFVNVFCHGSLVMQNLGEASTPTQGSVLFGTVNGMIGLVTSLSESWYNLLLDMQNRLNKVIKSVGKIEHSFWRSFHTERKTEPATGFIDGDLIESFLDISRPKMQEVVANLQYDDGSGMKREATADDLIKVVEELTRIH

SMILES: CC[C@H](C(=O)N1CCCC[C@H]1C(=O)O[C@H](CCc1ccc(OC)c(OC)c1)c1ccccc1OCC(=O)NCCCCCCCCNc1ccc2c(c1)C(=O)N(C1CCC(=O)NC1=O)C2=O)c1cc(OC)c(OC)c(OC)c1 (some centres unmarked) [dTag]
- OCT4 and MED1 occupancy at enhancers (SEs versus TEs) (OCT4 (FKBP-tagged)): reduction of OCT4 and MEM occupancy at enhancers, with the most profound effects occurring at SEs

SMILES: C[C@]12CC[C@@H]3c4ccc(O)cc4CC[C@H]3[C@@H]1CC[C@@H]2O [estrogen, B-Estradiol]
- condensate formation, CFP signal of fusion protein [1]: did not significantly affect condensate formation
- condensate formation, mediator immunofluorescence [1]: did not significantly affect condensate formation
- MED1 condensate formation at the MYC oncogene (MYC oncogene): stimulates MED1 condensate formation at the MYC oncogene

SMILES: CC/C(=C(\c1ccccc1)c1ccc(OCCN(C)C)cc1)c1ccccc1 [tamoxifen]
- Effect on ER LBD-MED1 condensate, live cell imaging [2]: dissolves the ER LBD-MED1 condensate
